Values quoted from earlier work in publication PMC6318274, “Lattice engineering enables definition of molecular features allowing for potent small-molecule inhibition of HIV-1 entry” (Nature Communications, 2019).
Read-outs that look alike come from different tables or passages of the source.

Tested on: HIV-1 Env-pseudoviruses (208-strain panel)
Details: cited from earlier work; for IC50: read-out: IC50; for % Neutralized / Total Neutralized: 208 viruses

For `COc1cnc(-n2cnc(C)n2)c2[nH]cc(C(=O)C(=O)N3CCN(C(=O)c4ccccc4)CC3)c12` [BMS-626529], the IC50 (CNE20, clade BC) is listed as 0.339 µM, the IC50 (CNE21, clade BC) is listed as 0.002 µM and the IC50 (CNE30, clade C) is listed as 0.001 µM. For the same compound, the IC50 (CNE31, clade C) was 0.023 µM, the IC50 (CNE40, clade BC) was 0.038 µM and the IC50 (CNE53, clade C) was 0.0005 µM. The IC50 (CNE55, clade AE) was 4.77 µM, the IC50 (CNE56, clade AE) was > 20 µM and the IC50 (CNE57, clade B) was 0.002 µM. The IC50 (CNE58, clade C) was 0.004 µM, the IC50 (CNE59, clade AE) was > 20 µM and the IC50 (Ce1176.A3, clade C) was 0.01 µM. The IC50 (DJ263.8, clade AG) was 0.011 µM, the IC50 (DU123.06, clade C) was 0.005 µM and the IC50 (DU151.02, clade C) was 0.006 µM. The IC50 (DU156.12, clade C) was 0.003 µM, the IC50 (DU172.17, clade C) was 0.008 µM and the IC50 (DU422.01, clade C) was 0.008 µM. The IC50 (HO86.8, clade B) was 0.02 µM, the IC50 (HT593.1, clade B) was 0.0009 µM and the IC50 (HXB2.DG, clade B) was 0.001 µM. The “% Neutralized” value (IC50 <0.01ug/ml) was 46%, the “Total Neutralized” value (IC50 <0.01ug/ml) was 95 and the “% Neutralized” value (IC50 <0.1ug/ml) was 71%. For the same compound, the “Total Neutralized” value (IC50 <0.1ug/ml) was 147, the “% Neutralized” value (IC50 <1.0ug/ml) was 80% and the “Total Neutralized” value (IC50 <1.0ug/ml) was 167. For the same compound, the “% Neutralized” value (IC50 <10ug/ml) was 89%, the “Total Neutralized” value (IC50 <10ug/ml) was 185 and the “% Neutralized” value (IC50 <50ug/ml) was 91%. The “Total Neutralized” value (IC50 <50ug/ml) was 189, the IC50 (JRCSF.JB, clade B) was 0.0003 µM and the IC50 (JRFL.JB, clade B) was 0.0004 µM. The IC50 (KER2008.12, clade A) was 1.87 µM, the IC50 (KER2018.11, clade A) was 0.008 µM and the IC50 (KNH1209.18, clade A) was 0.029 µM. For the same compound, the IC50 (M02138, clade AE) was 2.81 µM, the IC50 (MB201.A1, clade A) was 0.628 µM and the IC50 (MB539.2B7, clade A) was 0.191 µM. The IC50 (MI369.A5, clade A) was 0.013 µM, the IC50 (MN.3, clade B) was 0.01 µM and the IC50 (MS208.A1, clade A) was 0.011 µM. For the same compound, the IC50 (MW965.26, clade C) was 0.433 µM, the IC50 (NKU3006.ec1, clade D) was 0.005 µM and the IC50 (P0402.c2.11, clade G) was 0.032 µM. For the same compound, the IC50 (P1981.C5.3, clade G) was 0.209 µM, the IC50 (PVO.04, clade B) was 0.003 µM and the IC50 (Q23.17, clade A) was 0.012 µM. The IC50 (Q168.a2, clade AD) was 0.115 µM, the IC50 (Q259.17, clade A) was 1.23 µM and the IC50 (Q461.e2, clade AD) was 0.012 µM. For the same compound, the IC50 (Q769.d22, clade A) was 0.123 µM, the IC50 (Q769.h5, clade A) was 0.427 µM and the IC50 (Q842.d12, clade A) was 0.017 µM. The IC50 (QH209.14M.A2, clade A) was 0.61 µM, the IC50 (QH0515.01, clade B) was 0.012 µM and the IC50 (QH0692.42, clade B) was 0.009 µM. The IC50 (R1166.c1, clade AE) was > 20 µM, the IC50 (R2184.c4, clade AE) was > 20 µM and the IC50 (R3265.c6, clade AE) was 13 µM. The IC50 (REJO.67, clade B) was 1.04 µM, the IC50 (RHPA.7, clade B) was 0.004 µM and the IC50 (RW020.2, clade A) was 0.071 µM. The IC50 (SC422.8, clade B) was 0.002 µM, the IC50 (SF162.LS, clade B) was 0.001 µM and the IC50 (SO18.18, clade C) was 0.003 µM. The IC50 (SS1196.01, clade B) was 7.05 µM, the IC50 (T33-7, clade AG) was 2.81 µM and the IC50 (T250-4, clade AG) was 0.015 µM. The IC50 (T251-18, clade AG) was 0.019 µM, the IC50 (T253-11, clade AG) was 0.001 µM and the IC50 (T255-34, clade AG) was 0.082 µM. For the same compound, the IC50 (T257-31, clade AG) was 0.057 µM, the IC50 (T266-60, clade AG) was 1.37 µM and the IC50 (T278-50, clade AG) was 0.0002 µM. For the same compound, the IC50 (T280-5, clade AG) was 0.01 µM, the IC50 (TH023.6, clade AE) was > 20 µM and the IC50 (TH966.8, clade AE) was > 20 µM. For the same compound, the IC50 (TH976.17, clade AE) was > 20 µM, the IC50 (THRO.18, clade B) was 0.003 µM and the IC50 (TRJO.58, clade B) was 0.001 µM. For the same compound, the IC50 (TRO.11, clade B) was 1.08 µM, the IC50 (TV1.29, clade C) was 0.067 µM and the IC50 (TZA125.17, clade C) was 0.014 µM. The IC50 (TZBD.02, clade C) was 0.005 µM, the IC50 (UG021.16, clade D) was 0.013 µM and the IC50 (UG024.2, clade D) was 0.566 µM. For the same compound, the IC50 (UG037.8, clade A) was 1.01 µM, the IC50 (WITO.33, clade B) was 0.005 µM and the IC50 (X1254.c3, clade G) was 0.043 µM. The IC50 (X1632.S2.B10, clade G) was 0.054 µM, the IC50 (X2088.c9, clade G) was 0.003 µM and the IC50 (X2131.C1.B5, clade G) was 0.267 µM. For the same compound, the IC50 (X2278.C2.B6, clade B) was 1.26 µM, the IC50 (YU2.DG, clade B) was 0.0009 µM and the IC50 (ZA012.29, clade C) was 0.007 µM. The IC50 (ZM53.12, clade C) was 0.01 µM, the IC50 (ZM55.28a, clade C) was 0.006 µM and the IC50 (ZM106.9, clade C) was 0.017 µM. The IC50 (ZM109.4, clade C) was 0.001 µM, the IC50 (ZM135.10a, clade C) was 0.889 µM and the IC50 (ZM176.66, clade C) was 0.018 µM. For the same compound, the IC50 (ZM197.7, clade C) was 0.006 µM, the IC50 (ZM214.15, clade C) was 0.002 µM and the IC50 (ZM215.8, clade C) was 0.002 µM. For the same compound, the IC50 (ZM233.6, clade C) was 0.0008 µM, the IC50 (ZM249.1, clade C) was 0.018 µM and the IC50 ([…], clade C) was 0.002 µM. The IC50 ([…], clade G) was 0.12 µM.
